Results from patent publication US20240269313A1, “CONJUGATES COMPRISING A PHOSPHORUS(V) MOIETY AND A DRUG” (Tubulis GmbH, priority 2022, published 2024).

Tests used:
[1] = tested on: HER2+ cell lines (N87 and SKBR3); experiment: In vitro efficacy with hydroxy-containing drugs (aromatic and aliphatic alcohols); type: cell-based; conditions: unconjugated drug
Excerpt: The scope of the linker system of conjugates in accordance with embodiments of the invention has been evaluated with further phenol-(or aromatic alcohol-) containing drugs OTS-964, Ganetespib and Birabresib. OTS-964 is a potent TOPK inhibitor, Ganetespib is a potent […], and Birabresib is a potent bromodomain inhibitor. […] Potency of the free payloads (OTS-964, Ganetespib and Birabresib) in the respective cell lines is also shown.
The scope of the linker system described herein has been also evaluated with further aliphatic alcohol-containing drugs SNX-2112, Gemcitabine and Barasertib. SNX-2112 is a potent HSP90-inhibitor, Gemcitabine is a potent ribonucleotide reductase inhibitor, and Barasertib is a potent Aurora B kinase inhibitor. […] Potency of the free payloads (SNX-2112, Gemcitabine and Barasertib) in the respective cell lines is also shown.

[2] = tested on: Trop2-positive cell lines; experiment: In vitro cell viability (in vitro potency) of SN38 based ADCs; conditions: various target-positive cell lines
Procedure: Antibody-drug conjugates (ADCs) comprising the anti-Trop2 antibody Sacituzumab, a phosphorus(V) moiety according to embodiments of the present invention, and SN38 as drug were tested in in vitro potency assays against various Trop2-positive cell lines. The corresponding ADCs with the non-targeted antibody Trastuzumab were used as isotype control. For direct comparison, the approved and marketed ADC Trodelvy comprising Sacituzumab, a CL2A linker and SN38 as drug was also tested. The corresponding ADC with Trastuzumab was used as isotype control.
Linkers have been conjugated to Sacituzumab (anti-Trop2) and Trastuzumab (anti Her2, isotype in this setting) and tested on a panel of 4 different cell lines. All cell lines were Trop+ and Her2−. Trastuzumab conjugates serve as isotype control in this setting. […] Sacituzumab-CL2A-SN38 is Trodelvy and has been purchased for the experiment.

Compound | activity of free payload [1] | in vitro potency, non-cleavable control vs cleavable conjugate [2]
Cc1cc(O)c(-c2ccc(C(C)CN(C)C)cc2)c2c1[nH]c(=O)c1sccc12 (stereo not shown) [OTS-964] | lower activities of the unconjugated drugs | –
CC(C)c1cc(-c2n[nH]c(=O)n2-c2ccc3c(ccn3C)c2)c(O)cc1O [Ganetespib] | highest activity as free payload | –
Cc1sc2c(c1C)C(c1ccc(Cl)cc1)=N[C@@H](CC(=O)Nc1ccc(O)cc1)c1nnc(C)n1-2 [Birabresib] | lower activities of the unconjugated drugs | –
Sacituzumab conjugated to O—P5(PEG12)-amidopentyl-Phosphoramidate-N-(4-Methylbenzyl)-O—SN38 | – | not active in the in vitro cell viability assay
